From paper PMC5655428, “Discovery and pharmacological characterization of a new class of prolyl-tRNA synthetase inhibitor for anti-fibrosis therapy” (PLoS ONE, 2017)

What was measured:
human PRS = molecular target: T1, human PRS (Homo sapiens, UniProt P07814); test: ATP/PPi exchange assay (PRS enzymatic inhibition); type: biochemical; details: ATP/PPi exchange method; duplicate
T1 construct: His-Avi-tag (N); made in house; host or cells: E. coli BL21 (DE3)
T1 sequence (P07814 998-1512): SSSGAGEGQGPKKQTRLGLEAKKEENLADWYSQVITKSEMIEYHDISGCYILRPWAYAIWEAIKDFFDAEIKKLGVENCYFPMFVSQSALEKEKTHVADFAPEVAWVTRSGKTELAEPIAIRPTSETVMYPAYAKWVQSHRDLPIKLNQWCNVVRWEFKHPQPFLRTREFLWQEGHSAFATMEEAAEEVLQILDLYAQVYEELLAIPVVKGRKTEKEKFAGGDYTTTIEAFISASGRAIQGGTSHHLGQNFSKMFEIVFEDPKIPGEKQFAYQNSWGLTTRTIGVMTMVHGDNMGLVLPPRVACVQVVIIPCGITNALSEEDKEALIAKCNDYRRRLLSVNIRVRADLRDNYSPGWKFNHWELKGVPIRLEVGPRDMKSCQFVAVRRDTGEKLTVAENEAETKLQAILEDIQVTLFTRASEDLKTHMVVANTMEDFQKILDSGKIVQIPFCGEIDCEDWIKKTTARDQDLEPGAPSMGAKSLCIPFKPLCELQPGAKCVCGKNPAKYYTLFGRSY
Experimental: The expression plasmid of human PRS (residues 998–1512, Genbank Accession No. NM_152621) was constructed in a pET21a vector (Novagen, San Diego, CA, USA) to express in E.coli BL21 (DE3) (Nippongene, Tokyo, Japan) as a fusion protein with His-Avi-tag at N-terminus. After culture, the cells were homogenized in a lysis buffer containing 50 mM Tris-HCl (pH 8.0 at 25°C), 150 mM NaCl, 5 U/mL Benzonase, 20 mM imidazole, and 1 mM DTT. Cell homogenates were centrifuged, and the supernatant was applied to NiNTA purification, followed by gel filtration with Superdex200. Proteins were stored in a buffer containing 50 mM Tris-HCl (pH 8.0 at 25°C), 150 mM NaCl, 10% glycerol, and 1 mM DTT at -80°C. The protein concentration was determined with the BCA Protein Assay Kit (Pierce Biotechnology, Inc., Rockford, IL, USA) according to the instruction manual.
The test compounds were dissolved in 5 μL of an assay buffer [50 mM Tris-HCl (pH 7.5), 20 mM KCl, 1 mM DTT, and 0.01% Tween 20] and incubated with 5 μL of 40 nM PRS enzyme dissolved in the assay buffer supplemented with 40 mM MgCl2 for 60 minutes. […] Radioactivities were measured using the TopCount detector (PerkinElmer).
The inhibitory activity was calculated as follows: % inhibition = (A—B) / (A—C) × 100, where, A, B, and C are signals with vehicle, test sample, and without reaction, respectively. […]

[1] = test system: TGF-β-treated human skin fibroblast; test: α-SMA and pro-COL1A1 protein ELISA in TGF-β-treated skin fibroblasts (Protocol 1); type: cell-based; details: TGF-β 1 ng/mL, 24 h; for pro-COL1A1 protein expression / α-SMA protein expression: 1-300 nM, 0.5 h pre-treatment, ELISA
Experimental: Primary human skin fibroblasts (NHDF-Ad) were obtained from Lonza (Basel, Switzerland). Cells were cultured and maintained in growth medium: Fibroblast Basal Medium (FBM) containing human fibroblast growth factor-B, insulin, fetal bovine serum (FBS) and gentamicin/amphotericin-B (Lonza). Cells were maintained in a humidified incubator at 37°C with 5% CO2 and used for experiments between passages 5 to 8.
Protocol 1: Cells were allowed to adhere overnight before being replaced with serum-free FBM for 24 h. Serum-starved cells were first pretreated with samples in DMSO at concentrations between 1 and 300 nM for 30 min and then stimulated with 1 ng/mL recombinant human TGF-β (R&D Systems, Minneapolis, MN, USA) for 24 h.
Cell lysates were prepared with cell lysis buffer (Cell Signaling Technology, Beverly, MA, USA) and subjected to α-SMA ELISA system (Abnova, Taipei, Taiwan) and Pro-type I Collagen α1 (pro-COL1A1) SimpleStep ELISA Kit (Abcam, Cambridge, UK, USA) according to the manufacturer's protocol.

[2] = test system: TGF-β-induced fibrotic genes expression in mouse ear skin; test: TGF-β-induced fibrotic gene expression in mouse ear, topical application; type: in vivo; details: for expression of fibrosis-related genes (Col1a1, Col1a2, α-Sma) in mouse ear: topical cream daily, 1 h before TGF-β 500 ng intradermal x5, T-3833261 0.01-0.1%, HF 0.01%
Experimental: Standard chow diet and water were available ad libitum.
A vehicle without compounds was applied to control mice. […] Topical application of compound was continued for 7 days.
Total RNA was isolated from in vivo samples using ISOGEN II (Nippongene) according to the manufacturer's instructions. In vitro RNA samples were prepared as mentioned above. High Capacity cDNA Reverse Transcription Kit (Life Technologies, Carlsbad, CA, USA) was used for cDNA synthesis. Real-time quantitative RT-PCR reactions were performed as a TaqMan method on a ViiA 7 real-Time PCR System (Life Technologies), using TaqMan Fast Advanced Master Mix (Lifer Technologies) with specific primers on TaqMan Gene Expression Assays (Life Technologies) according to the manufacturer's manual. FAM-probed primers were used: COL1A1, Hs00164004_m1; α-SMA/ACTA2, Hs00426835_g1; fibroblast growth factor 2 (FGF2), Hs00266645_m1; Smad specific E3 ubiquitin protein ligase 2 (SMURF2), Hs00224203_m1; DDIT3, Hs00358796_g1; and glyceraldehyde 3-phosphate dehydrogenase (GAPDH), 4326317E for human in vitro cell assay. FAM-probed and TAMRA-quenched primers (Sigma-Aldrich Japan, Tokyo, Japan) were used: Col1a1, NM_007742; type I collagen alpha 2 (Col1a2), NM_007743; α-Sma/Acta2, NM_007392; and Gapdh, NM_008084 for mouse in vivo assay (S1 Table). The relative mRNA level of the target genes was calculated by the comparative threshold cycle (Ct) method using GAPDH (Gapdh) as an internal control for normalization. The fold change in the expression of each target gene was calculated by the following formula: relative quantification (RQ) = 2^-ΔΔCt.

Structure (SMILES)	IC50 (human PRS) [nM]	pro-COL1A1 protein expression [1]	α-SMA protein expression [1]	concentration reducing α-SMA and pro-COL1A1 proteins below the basal level of non-stimulated cells [1] [nM]	expression of fibrosis-related genes (Col1a1, Col1a2, α-Sma) in mouse ear [2]	activity on fibrotic gene expression relative to HF formulation ([2]; 0.1% formulation of T-3833261, topical, mouse ear)
O=C(CC1NCCCC1O)Cn1cnc2cc(Br)c(Cl)cc2c1=O (centres unmarked) [HF, Halofuginone, reference compound]	8.7	suppressed pro-COL1A1 protein expression in a dose-dependent manner	suppressed α-SMA protein expression in a dose-dependent manner	≥ 100	prevented the skin fibrotic genes expression induced by TGF-β	–
Cn1cc(-c2cc(F)cc(CNC(=O)c3nccc4nc(C5CCCC5)[nH]c34)c2)cn1 [T-3833261, 2-Cyclopentyl-N-(3-fluoro-5-(1-methyl-1H-pyrazol-4-yl)benzyl)-3H-imidazo[4,5-c]pyridine-4-carboxamide]	3.6	suppressed pro-COL1A1 protein expression in a dose-dependent manner	suppressed α-SMA protein expression in a dose-dependent manner	≥ 100	reduced expression of these fibrotic genes in a dose-dependent manner	comparable activity to a 0.01% HF formulation
